Reference: ChEMBL document CHEMBL5512638, “Novel pyrrole based CB2 agonists: New insights on CB2 receptor role in regulating neurotransmitters' tone” (Eur J Med Chem, 2024)

Key:
[1] = target: T1, Cannabinoid receptor 1 (Homo sapiens, UniProt P21554); assay: Displacement of [3H]CP55940 from recombinant human CB1 receptor expressed in HEK293 cell membrane assessed as inhibition constant incubated for 90 mins by competition binding assay; format: cell membranes
[2] = target: T1, Cannabinoid receptor 1; assay: Displacement of [3H]CP55940 from recombinant human CB1 receptor expressed in HEK293 cell membrane incubated for 90 mins by competition binding assay; format: cell membranes
[3] = target: T2, Cannabinoid receptor 2 (Homo sapiens, UniProt P34972); assay: Displacement of [3H]CP55940 from recombinant human CB2 receptor expressed in HEK293 cell membrane incubated for 90 mins by competition binding assay; format: cell membranes
[4] = target: T2, Cannabinoid receptor 2; assay: Displacement of [3H]CP55940 from recombinant human CB2 receptor expressed in HEK293 cell membrane assessed as inhibition constant incubated for 90 mins by competition binding assay; format: cell membranes
[5] = organism: Homo sapiens; assay: Selectivity ratio of Ki for displacement of [3H]CP55940 from recombinant human CB2 receptor expressed in HEK293 cell membrane to Ki for displacement of [3H]CP55940 from recombinant human CB1 receptor expressed in HEK293 cell membrane; format: cell membranes
[6] = system: Mus musculus; assay: (§1) Cognitive enhancing activity in scopolamine induced amnesia male C57/BL6J mouse model assessed as latency time to enter novel arm at 1 mg/kg, ip preadministered with compound for 10 mins followed by scopolamine administration for 30 mins and measured after 30 mins by Y-maze test (reference value: 21.93 +/- 0.78 sec); format: functional; conditions: time 70 min, 1.167 h
[7] = target: T2, Cannabinoid receptor 2; assay: Agonist activity at human CB2 receptor expressed in CHO-K1 cells assessed as reduction in NKH-477 induced cAMP production by chemiluminescence based cAMP hunter assay; format: functional, cell-based
[8] = Chemical stability of compound in phosphate buffer at pH 7.4 assessed as compound remaining at 5 uM measured after 1 hrs by UHPLC-MS analysis; format: physicochemical; conditions: read-out: Stability
[9] = target: T2, Cannabinoid receptor 2; assay: Partial agonist activity at human CB2 receptor expressed in CHO-K1 cells assessed as reduction in NKH-477 induced cAMP production by chemiluminescence based cAMP hunter assay; format: functional, cell-based
[10] = Chemical stability of compound in phosphate buffer at pH 7.4 assessed as compound remaining at 5 uM measured after 1.5 hrs by UHPLC-MS analysis; format: physicochemical; conditions: read-out: Stability
[11] = target: T2, Cannabinoid receptor 2; assay: Partial agonist activity at human CB2 receptor expressed in CHO-K1 cells assessed as reduction in NKH-477 induced cAMP production by measuring maximal efficacy by chemiluminescence based cAMP hunter assay relative to control; format: functional, cell-based; conditions: filed as partial agonist
[12] = Chemical stability of compound in phosphate buffer at pH 7.4 assessed as compound remaining at 5 uM measured after 0.5 hrs by UHPLC-MS analysis; format: physicochemical; conditions: read-out: Stability
[13] = Chemical stability of compound in phosphate buffer at pH 7.4 assessed as compound remaining at 5 uM measured after 2 hrs by UHPLC-MS analysis; format: physicochemical; conditions: read-out: Stability
[14] = system: Mus musculus; assay: as §1, with “as” for “as latency time to enter”, “arm exploration time” for “arm”, “9.28” for “21.93”, “1.03” for “0.78”; format: functional; conditions: time 70 min, 1.167 h

T1 sequence (P21554 whole entry): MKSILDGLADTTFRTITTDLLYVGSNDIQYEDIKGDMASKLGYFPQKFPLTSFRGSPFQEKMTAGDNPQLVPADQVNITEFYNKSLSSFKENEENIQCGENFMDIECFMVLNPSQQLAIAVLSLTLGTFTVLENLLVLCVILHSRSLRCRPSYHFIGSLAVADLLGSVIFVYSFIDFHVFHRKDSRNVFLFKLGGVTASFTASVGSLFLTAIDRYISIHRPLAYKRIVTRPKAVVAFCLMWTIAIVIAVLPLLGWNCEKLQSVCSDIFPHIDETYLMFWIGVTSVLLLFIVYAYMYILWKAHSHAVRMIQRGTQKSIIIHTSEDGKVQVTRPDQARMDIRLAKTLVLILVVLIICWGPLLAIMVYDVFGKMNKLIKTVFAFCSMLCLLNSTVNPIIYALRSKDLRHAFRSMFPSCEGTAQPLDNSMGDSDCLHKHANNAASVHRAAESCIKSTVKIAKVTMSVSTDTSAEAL
T2 sequence (P34972 whole entry): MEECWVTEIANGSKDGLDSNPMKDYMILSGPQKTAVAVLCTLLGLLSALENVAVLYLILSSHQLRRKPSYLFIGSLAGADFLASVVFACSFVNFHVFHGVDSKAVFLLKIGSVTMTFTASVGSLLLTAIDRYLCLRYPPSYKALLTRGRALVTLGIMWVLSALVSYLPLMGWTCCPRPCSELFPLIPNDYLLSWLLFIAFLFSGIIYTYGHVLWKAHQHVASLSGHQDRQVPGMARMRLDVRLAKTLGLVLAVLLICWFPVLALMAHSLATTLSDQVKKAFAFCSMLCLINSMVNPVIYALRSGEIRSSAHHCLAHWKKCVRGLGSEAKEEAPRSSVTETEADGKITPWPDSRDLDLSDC

Compound | Ki ([1]; read-out: Ki) [µM] | IC50 ([2]; read-out: IC50) [µM] | IC50 ([3]; read-out: IC50) [µM] | Ki ([4]; read-out: Ki) [µM] | further results
Cc1ccc(CNC(=O)c2cccn2Cc2ccc(F)cc2)cc1 | > 10 | > 10 | > 10 | > 10 | 
N=C(N)NCCCn1cccc1C(=O)c1ccccc1Cl | > 10 | > 10 | > 10 | > 10 | 
O=C(NCCO)[C@@H]1Cc2ccccc2CN1C(=O)c1ccc(O)cc1 | > 10 | > 10 | > 10 | > 10 | 
Cc1ccc(NC(=O)c2cccn2Cc2ccc(F)cc2)cc1 | 1.03 | 6.13 | 1.32 | 0.27 | Ratio Ki [5]: 5
O=C(CCO)N[C@@H](Cc1ccc(O)cc1)C(=O)Nc1ccc(O)cc1 | > 10 | > 10 | > 10 | > 10 | 
O=C(c1ccccc1Cl)c1cccn1CC12CC3CC(CC(C3)C1)C2 | > 10 | > 10 | 4.22 | 0.67 | 
CC(=O)OCCCCn1cccc1C(=O)NCc1ccccc1 | > 10 | > 10 | > 10 | > 10 | 
CC(=O)OCCn1cccc1C(=O)c1ccccc1Cl | > 10 | > 10 | > 10 | > 10 | 
Cc1ccc(S(=O)(=O)n2cccc2C(=O)c2ccc(Cl)cc2)cc1 |  |  |  |  | Ki ([1]; hek293): Not Determined(Insoluble); IC50 ([2]; hek293): Not Determined(Insoluble); IC50 ([3]; hek293): Not Determined(Insoluble); Ki ([4]; hek293): Not Determined(Insoluble)
CC(=O)Oc1ccc(Cn2cccc2C(=O)c2ccccc2Cl)cc1 | > 10 | > 10 | > 10 | > 10 | 
O=C(CCO)N[C@@H](Cc1c[nH]c2ccccc12)C(=O)Nc1ccc(O)cc1 | > 10 | > 10 | > 10 | > 10 | 
O=C(O)CC(=O)N[C@@H](Cc1c[nH]c2ccccc12)C(=O)Nc1ccc(O)cc1 | > 10 | > 10 | > 10 | > 10 | 
COc1ccc(C(=O)c2c(C)n(CCN3CCOCC3)c3cc(I)ccc23)cc1 |  |  |  |  | Time [6]: 9.28 s
O=C(c1ccccc1Cl)c1cccn1Cc1ccc(O)cc1 | > 10 | > 10 | > 10 | > 10 | 
CCCCCn1cccc1C(=O)c1ccc(C)cc1 | > 10 | > 10 | > 10 | > 10 | 
Cc1ccc(S(=O)(=O)n2cccc2C(=O)c2ccccc2)cc1 | > 10 | > 10 | > 10 | > 10 | 
CCCC(C)(C)c1ccc2c(c1)OC(C)(C)[C@@H]1CC=C(C)C[C@@H]21 | 0.281 |  |  | 0.005 | EC50 [7]: 0.09 µM
COC(=O)CCCn1cccc1C(=O)c1ccccc1Cl | > 10 | > 10 | > 10 | > 10 | 
O=C(c1ccccc1Cl)c1cccn1CCCCO | > 10 | > 10 | > 10 | > 10 | 
CC(=O)OCCCCn1cccc1C(=O)c1ccccc1Cl | > 10 | > 10 | 7.91 | 1.26 | 
Cc1ccc(Cn2cccc2C(=O)c2ccc(Cl)cc2)cc1 | > 10 | > 10 | > 10 | > 10 | 

Compound | Ki ([1]; read-out: Ki) [µM] | IC50 ([2]; read-out: IC50) [µM] | IC50 ([3]; read-out: IC50) [µM] | Ki ([4]; read-out: Ki) [µM] | further results
O=C(Nc1ccc(O)cc1)[C@@H]1Cc2ccccc2CN1C(=O)CCO | > 10 | > 10 | > 10 | > 10 | 
O=C(NCc1cccc(O)c1)c1cccn1Cc1ccc(F)cc1 | > 10 | > 10 | > 10 | > 10 | 
Cc1ccc(C(=O)c2cccn2S(=O)(=O)c2ccc(C)cc2)cc1 | > 10 | > 10 | > 10 | > 10 | 
O=C(Nc1cccc2ccccc12)c1cccn1Cc1ccc(F)cc1 | > 10 | > 10 | 0.39 | 0.06 | remaining at 1 h, 5 µM [8]: 101%; EC50 [9]: 6.11 µM; remaining at 1.5 h, 5 µM [10]: 103%; Emax [11]: 43.1%; remaining at 0.5 h, 5 µM [12]: 101%; remaining at 2 h, 5 µM [13]: 99.2%
CC(=O)Oc1cccc(Cn2cccc2C(=O)c2ccccc2Cl)c1 | > 10 | > 10 | 9.83 | 1.56 | 
O=C(c1ccccc1Cl)c1cccn1Cc1cccc(O)c1 | > 10 | > 10 | > 10 | > 10 | 
O=C(NC12CC3CC(CC(C3)C1)C2)c1cccn1Cc1ccc(F)cc1 | > 10 | > 10 | 0.07 | 0.01 | remaining at 1 h, 5 µM [8]: 98.8%; remaining at 1.5 h, 5 µM [10]: 99.2%; EC50 [7]: 2.36 µM; remaining at 0.5 h, 5 µM [12]: 98.6%; remaining at 2 h, 5 µM [13]: 102%
Cc1c(C(=O)NN2CCCCC2)nn(-c2ccc(Cl)cc2Cl)c1-c1ccc(I)cc1 |  |  |  |  | Time [6]: 11.01 s; Time [14]: 28.6 s
Nc1cccc(C(=O)Nc2cccc(NC(=O)CO)c2)c1 | > 10 | > 10 | > 10 | > 10 | 
O=C(NCc1ccco1)c1cccn1Cc1ccc(-c2ccccc2)cc1 | > 10 | > 10 | 1.47 | 0.23 | 
O=C(CO)Nc1cccc(NC(=O)c2cccnc2)c1 | > 10 | > 10 | > 10 | > 10 | 
O=C(NCc1ccc(O)cc1)c1cccn1Cc1ccc(F)cc1 | > 10 | > 10 | > 10 | > 10 | 
CC(=O)NCCCCn1cccc1C(=O)c1ccccc1Cl | > 10 | > 10 | > 10 | > 10 | 
O=C(O)CCCn1cccc1C(=O)c1ccccc1Cl | > 10 | > 10 | > 10 | > 10 | 
O=C(c1ccc(Cl)cc1)c1cccn1Cc1ccco1 | > 10 | > 10 | > 10 | > 10 | 
O=C(Nc1cccc(CO)c1)c1cccn1Cc1ccc(F)cc1 | > 10 | > 10 | 1.59 | 0.25 | 
CCOC(=O)CCCn1cccc1C(=O)c1ccccc1Cl | > 10 | > 10 | > 10 | > 10 | 
Nc1ccc(CNC(=O)c2cccn2Cc2ccc(F)cc2)cc1 | > 10 | > 10 | > 10 | > 10 | 
CCCCCNC(=O)c1cccn1Cc1ccc(F)cc1 | > 10 | > 10 | > 10 | > 10 | 
O=C(NCc1ccccc1)c1cccn1Cc1ccc(F)cc1 | > 10 | > 10 | 4.6 | 0.706 | 
O=C(OCCCCn1cccc1C(=O)c1ccccc1Cl)c1ccccc1 | > 10 | > 10 | > 10 | > 10 | 
